Peptide text beside a SMILES is read from it.
Description: All subjects who met eligibility criteria were confined to the clinical research unit from […] through Day 3. At admission, physical examination, vital signs, 12 lead ECG and weight were obtained, medical and medication history were updated if necessary, safety blood tests (hematology and chemistry), urinalysis, urine drug screen and an alcohol breath test were repeated and a urine pregnancy test was done for women of childbearing potential.
At each dose level, there were 2 sentinel subjects, (1 active, 1 placebo), who were dosed at least 48 hours in advance of the other subjects in their respective group. Following review of safety data, including physical examination, vital signs, and review of adverse events from the first 2 subjects, enrolment in the cohort continued.
A 12-lead ECG was performed on Day 1, within 60 minutes of infusion start (in triplicate), mid-way through the infusion, at the completion of the infusion, 30 minutes after completion of the infusion and at various timepoints following the end of the infusion.
Vital signs were recorded within 60 minutes pre-dose, at the mid-point of the infusion and post dose vitals were assessed at completion of the infusion, 0.5, 1, 2, 3, 4, 6, 9, 12, 24 and 48 hours post dose, after at least 3 minutes of rest in supine position.
Subjects returned to the study center 7 days after dosing, for the termination visit. A full physical examination, vital signs and weight were obtained, concomitant medications were updated if necessary, safety blood specimens (haematology and chemistry, PT and aPTT) and urine were collected for urinalysis and urine drug screening. A serum pregnancy test was done for women of childbearing potential and a 12-lead ECG was performed.
In this study dose limiting toxicity (DLT) was defined as any drug related ≥Grade 3 AEs occurring despite optimal therapeutic interventions (which included but were not limited to allergic/hypersensitivity reactions, dermatological reactions/infusion site reactions, haematological toxicities such as neutropenia, thrombocytopenia and anaemia and clinical chemistry abnormalities) experienced up to Day 7 (Termination Visit).
(§1) All subjects who received any amount of study drug were included in the safety analysis (Safety population).
The study was a double blinded, randomized, placebo-controlled study. The placebo administered was 0.9% sodium chloride.
On Day 1 (day of dosing), subjects were randomly assigned either peptide IV or Placebo IV. At each dose level, there were 2 sentinel subjects, (1 active, 1 placebo), who were dosed at least 48 hours in advance of the other subjects in their respective group. Following review of safety data, including physical examination, vital signs, and review of adverse events from the first 2 subjects, enrolment in the cohort continued. All subjects who met eligibility criteria were confined to the clinical research unit from Day −2 through Day 3. At admission, physical examination, vital signs, 12 lead ECG and weight were obtained, medical and medication history were updated if necessary, safety blood tests (hematology and chemistry), urinalysis, urine drug screen and an alcohol breath test were repeated and a urine pregnancy test was done for women of childbearing potential.
as §1

CC(C)[C@H](NC(=O)[C@H](Cc1c[nH]c2ccccc12)NC(=O)[C@H](CCCNC(=N)N)NC(=O)[C@H](CCCNC(=N)N)NC(=O)[C@@H](NC(=O)[C@@H](NC(=O)[C@H](CCCNC(=N)N)NC(=O)[C@@H](NC(=O)[C@@H](NC(=O)[C@H](CCCNC(=N)N)NC(=O)[C@H](CCCNC(=N)N)NC(=O)[C@H](Cc1c[nH]c2ccccc12)NC(=O)[C@@H](NC(=O)[C@H](CCCNC(=N)N)NC(=O)[C@H](CCCNC(=N)N)NC(=O)[C@@H](NC(=O)[C@H](CCCNC(=N)N)NC(=O)[C@H](CCCNC(=N)N)NC(=O)[C@@H](NC(=O)[C@H](Cc1c[nH]c2ccccc12)NC(=O)[C@H](CCCNC(=N)N)NC(=O)[C@@H](N)CCCNC(=N)N)C(C)C)C(C)C)C(C)C)C(C)C)C(C)C)C(C)C)C(C)C)C(=O)N[C@@H](CCCNC(=N)N)C(=O)N[C@@H](CCCNC(=N)N)C(N)=O [SEQ ID NO: 1] (H-RRWVRRVRRVWRRVVRVVRRWVRR-NH2)
TEAE severity Grade 5, participants n (%) (Pooled SEQ ID NO: 1 (N = 35)): 0 | Treatment-related TEAE: Abdominal distension, occurrences m (Pooled SEQ ID NO: 1 (N = 35)): 1 | Treatment-related TEAE: Abdominal distension, participants n (%) (Pooled SEQ ID NO: 1 (N = 35)): 1 (2.9%) | Treatment-related TEAE: Blood and Lymphatic System Disorders, participants n (%) (Pooled SEQ ID NO: 1 (N = 35)): 0 | Treatment-related TEAE: Constipation, participants n (%) (Pooled SEQ ID NO: 1 (N = 35)): 0 | Treatment-related TEAE: Diarrhea, occurrences m (Pooled SEQ ID NO: 1 (N = 35)): 1 | Treatment-related TEAE: Diarrhea, participants n (%) (Pooled SEQ ID NO: 1 (N = 35)): 1 (2.9%) | Treatment-related TEAE: Dizziness, occurrences m (Pooled SEQ ID NO: 1 (N = 35)): 1 | Treatment-related TEAE: Dizziness, participants n (%) (Pooled SEQ ID NO: 1 (N = 35)): 1 (2.9%) | Treatment-related TEAE: Feeling hot, participants n (%) (Pooled SEQ ID NO: 1 (N = 35)): 0 | Treatment-related TEAE: Gastrointestinal Disorders, occurrences m (Pooled SEQ ID NO: 1 (N = 35)): 3 | Treatment-related TEAE: Gastrointestinal Disorders, participants n (%) (Pooled SEQ ID NO: 1 (N = 35)): 2 (5.7%) | Treatment-related TEAE: General Disorders and Administration Site Conditions, occurrences m (Pooled SEQ ID NO: 1 (N = 35)): 11 | Treatment-related TEAE: General Disorders and Administration Site Conditions, participants n (%) (Pooled SEQ ID NO: 1 (N = 35)): 10 (28.6%) | Treatment-related TEAE: Headache, occurrences m (Pooled SEQ ID NO: 1 (N = 35)): 1 | Treatment-related TEAE: Headache, participants n (%) (Pooled SEQ ID NO: 1 (N = 35)): 1 (2.9%) | Treatment-related TEAE: Infusion related reaction, occurrences m (Pooled SEQ ID NO: 1 (N = 35)): 1 | Treatment-related TEAE: Infusion related reaction, participants n (%) (Pooled SEQ ID NO: 1 (N = 35)): 1 (20.0%) | Treatment-related TEAE: Infusion site discomfort, occurrences m (Pooled SEQ ID NO: 1 (N = 35)): 1 | Treatment-related TEAE: Infusion site discomfort, participants n (%) (Pooled SEQ ID NO: 1 (N = 35)): 1 (2.9%) | Treatment-related TEAE: Infusion site pain, occurrences m (Pooled SEQ ID NO: 1 (N = 35)): 3 | Treatment-related TEAE: Infusion site pain, participants n (%) (Pooled SEQ ID NO: 1 (N = 35)): 3 (8.6%) | Treatment-related TEAE: Infusion site reaction, occurrences m (Pooled SEQ ID NO: 1 (N = 35)): 4 | Treatment-related TEAE: Infusion site reaction, participants n (%) (Pooled SEQ ID NO: 1 (N = 35)): 4 (11.4%) | Treatment-related TEAE: Infusion site swelling, occurrences m (Pooled SEQ ID NO: 1 (N = 35)): 1 | Treatment-related TEAE: Infusion site swelling, participants n (%) (Pooled SEQ ID NO: 1 (N = 35)): 1 (2.9%) | Treatment-related TEAE: Injury, Poisoning, and Procedural Complications, occurrences m (Pooled SEQ ID NO: 1 (N = 35)): 1 | Treatment-related TEAE: Injury, Poisoning, and Procedural Complications, participants n (%) (Pooled SEQ ID NO: 1 (N = 35)): 1 (20.0%) | Treatment-related TEAE: Macule, occurrences m (Pooled SEQ ID NO: 1 (N = 35)): 1 | Treatment-related TEAE: Macule, participants n (%) (Pooled SEQ ID NO: 1 (N = 35)): 1 (2.9%) | Treatment-related TEAE: Musculoskeletal and Connective Tissue Disorders, occurrences m (Pooled SEQ ID NO: 1 (N = 35)): 1 | Treatment-related TEAE: Musculoskeletal and Connective Tissue Disorders, participants n (%) (Pooled SEQ ID NO: 1 (N = 35)): 1 (2.9%) | Treatment-related TEAE: Myalgia, occurrences m (Pooled SEQ ID NO: 1 (N = 35)): 1 | Treatment-related TEAE: Myalgia, participants n (%) (Pooled SEQ ID NO: 1 (N = 35)): 1 (2.9%) | Treatment-related TEAE: Oropharyngeal pain, participants n (%) (Pooled SEQ ID NO: 1 (N = 35)): 0 | Treatment-related TEAE: Orthostatic hypotension, occurrences m (Pooled SEQ ID NO: 1 (N = 35)): 1 | Treatment-related TEAE: Orthostatic hypotension, participants n (%) (Pooled SEQ ID NO: 1 (N = 35)): 1 (2.9%) | Treatment-related TEAE: Pain in extremity, participants n (%) (Pooled SEQ ID NO: 1 (N = 35)): 0 | Treatment-related TEAE: Phlebitis, occurrences m (Pooled SEQ ID NO: 1 (N = 35)): 3 | Treatment-related TEAE: Phlebitis, participants n (%) (Pooled SEQ ID NO: 1 (N = 35)): 3 (8.6%) | Treatment-related TEAE: Respiratory, Thoracic, and Mediastinal disorders, participants n (%) (Pooled SEQ ID NO: 1 (N = 35)): 0 | Treatment-related TEAE: Skin and Subcutaneous Tissue Disorders, occurrences m (Pooled SEQ ID NO: 1 (N = 35)): 1 | Treatment-related TEAE: Skin and Subcutaneous Tissue Disorders, participants n (%) (Pooled SEQ ID NO: 1 (N = 35)): 1 (2.9%) | Treatment-related TEAE: Thrombocytopenia, participants n (%) (Pooled SEQ ID NO: 1 (N = 35)): 0 | Treatment-related TEAE: Vascular Disorders, occurrences m (Pooled SEQ ID NO: 1 (N = 35)): 4 | Treatment-related TEAE: Vascular Disorders, participants n (%) (Pooled SEQ ID NO: 1 (N = 35)): 3 (8.6%) | Treatment-related TEAE: Vessel puncture site erythema, occurrences m (Pooled SEQ ID NO: 1 (N = 35)): 1 | Treatment-related TEAE: Vessel puncture site erythema, participants n (%) (Pooled SEQ ID NO: 1 (N = 35)): 1 (2.9%) | Treatment-related TEAE: Vessel puncture site pain, occurrences m (Pooled SEQ ID NO: 1 (N = 35)): 1 | Treatment-related TEAE: Vessel puncture site pain, participants n (%) (Pooled SEQ ID NO: 1 (N = 35)): 3 (2.9%) | Treatment-related TEAE: Vomiting, occurrences m (Pooled SEQ ID NO: 1 (N = 35)): 1 | Treatment-related TEAE: Vomiting, participants n (%) (Pooled SEQ ID NO: 1 (N = 35)): 1 (2.9%) | Number of Participants Reporting at least: Onc TEAE Leading to Study Withdrawal, n (%) (Pooled active cohorts (N = 35)): 0 | Number of Participants Reporting at least: One Dose-Limiting Toxicity, n (%) (Pooled active cohorts (N = 35)): 0 | Number of Participants Reporting at least: One Related TEAE, n (%) (Pooled active cohorts (N = 35)): 13 (37.1%) | Number of Participants Reporting at least: One Serious TEAE, n (%) (Pooled active cohorts (N = 35)): 0 | Number of Participants Reporting at least: One TEAE Leading to Study Drug Discontinuation, n (%) (Pooled active cohorts (N = 35)): 2 (5.7%) | Number of Participants Reporting at least: One TEAE with Common Terminology Criteria for Adverse Events (CTCAE) Toxicity ≥ Grade 3, n (%) (Pooled active cohorts (N = 35)): 0 | Number of Participants Reporting at least: One TEAE, n (%) (Pooled active cohorts (N = 35)): 31 (88.6%) | One Related TEAE, m (Pooled active cohorts (N = 35)): 23 | One TEAE Leading to Study Drug Discontinuation, m (Pooled active cohorts (N = 35)): 4 | One TEAE, m (Pooled active cohorts (N = 35)): 72 | TEAE Severity Grade 1, m (Pooled active cohorts (N = 35)): 64 | TEAE Severity Grade 1, n (%) (Pooled active cohorts (N = 35)): 30 (85.7%) | TEAE Severity Grade 2, m (Pooled active cohorts (N = 35)): 8 | TEAE Severity Grade 2, n (%) (Pooled active cohorts (N = 35)): 5 (14.3%) | overall safety and tolerability (healthy volunteers, 0.05 to 1 mg/kg, drug concentration below 0.50 mg/mL and dose rate below 25 mg/hour): safe and well tolerated | severity of IRRs in relation to maximum dose rate (maximum dose rate higher (>25 mg/hr)): more severe

Reference: patent US20240115654A1, “INTRAVENOUS ADMINISTRATION OF ENGINEERED ANTIMICROBIAL AMPHIPHILIC PEPTIDES” (priority 2021, published 2024)
